Source: the Kinase Knowledgebase extract (Sharma et al. 2016)

Target: MAPK14 (human) (UniProt Q16539)
Test: Inhibition of MAPK14 Kinase Activity

MAPK14 (human), sequence (Q16539 whole entry, looked up): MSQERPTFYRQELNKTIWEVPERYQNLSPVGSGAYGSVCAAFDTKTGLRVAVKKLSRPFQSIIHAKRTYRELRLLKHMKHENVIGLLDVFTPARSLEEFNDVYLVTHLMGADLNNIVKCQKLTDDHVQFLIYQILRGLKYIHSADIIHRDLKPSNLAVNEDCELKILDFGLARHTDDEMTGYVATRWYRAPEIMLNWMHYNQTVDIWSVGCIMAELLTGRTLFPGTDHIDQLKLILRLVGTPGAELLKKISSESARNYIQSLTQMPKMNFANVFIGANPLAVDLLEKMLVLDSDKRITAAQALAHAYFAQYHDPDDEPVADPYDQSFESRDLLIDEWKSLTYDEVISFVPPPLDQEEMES

**Q.** How did the IC50 turn out when `CN(C)C(=O)c1sc2c(ccc(=O)n2-c2ccccc2)c1C(=O)c1ccccc1` was run?
**A.** < 2000 nM

**Q.** How did the IC50 turn out when `Nc1sc2c(ccc(=O)n2-c2ccccc2)c1C(=O)c1ccc(F)cc1` was run?
**A.** < 2000 nM

**Q.** `CN(C)C1CN(c2sc3c(ccc(=O)n3-c3ccccc3)c2C(=O)c2ccccc2)C1` was tested. Which IC50 did it give?
**A.** < 2000 nM

**Q.** For `CN1CC[C@@H](NC(=O)Nc2sc3c(ccc(=O)n3-c3ccccc3)c2C(=O)c2ccccc2)C1`, which IC50 is on record?
**A.** < 2000 nM

**Q.** With `CC(=O)Nc1sc2c(ccc(=O)n2-c2ccccc2F)c1C(=O)c1ccccc1` as the compound, how does the IC50 read?
**A.** < 2000 nM

**Q.** `CC(=O)Nc1sc2c(ccc(=O)n2-c2ccccc2)c1C(=O)c1ccccc1` was tested. Which IC50 did it give?
**A.** < 2000 nM

**Q.** Which IC50 does the source give for `CN(C)c1sc2c(ccc(=O)n2-c2ccccc2)c1C(=O)c1ccccc1` here?
**A.** < 2000 nM

**Q.** With `CN(C)C(=O)Nc1sc2c(ccc(=O)n2-c2ccccc2)c1C(=O)c1ccccc1` as the compound, how does the IC50 read?
**A.** < 2000 nM

**Q.** How did the IC50 turn out when `Cc1ccc(-n2c(=O)ccc3c(C(=O)c4ccc(F)c(C)c4)c(NC4CN(C)C4)sc32)cc1` was run?
**A.** < 2000 nM

**Q.** With `CCOC(=O)c1sc2c(ccc(=O)n2-c2ccccc2)c1C(=O)c1cccc(Cl)c1` as the compound, how does the IC50 read?
**A.** < 2000 nM

**Q.** For `O=C(c1ccccc1)c1c(NCCN2CCCCC2)sc2c1ccc(=O)n2-c1ccccc1`, which IC50 is on record?
**A.** < 2000 nM

**Q.** How did the IC50 turn out when `Nc1sc2c(ccc(=O)n2-c2ccccc2)c1C(=O)c1ccccc1Cl` was run?
**A.** < 2000 nM

**Q.** With `CC(=O)Nc1sc2c(ccc(=O)n2-c2ccccc2Cl)c1C(=O)c1cccc(C)c1` as the compound, how does the IC50 read?
**A.** < 2000 nM

**Q.** Which IC50 does the source give for `Cc1cc(C(=O)c2c(NC3CCNCC3)sc3c2ccc(=O)n3-c2ccccc2)ccc1F` here?
**A.** < 2000 nM

**Q.** `Cc1cc(C(=O)c2c(N)sc3c2ccc(=O)n3-c2c(F)cccc2F)ccc1F` was tested. Which IC50 did it give?
**A.** < 2000 nM

**Q.** Which IC50 does the source give for `O=C(c1ccccc1)c1c(NC(=O)C2CCNCC2)sc2c1ccc(=O)n2-c1ccccc1Cl` here?
**A.** < 2000 nM

**Q.** For `O=C(c1ccccc1)c1c([N+](=O)[O-])sc2c1ccc(=O)n2-c1ccccc1`, which IC50 is on record?
**A.** < 2000 nM

**Q.** Which IC50 does the source give for `Cc1ccc(-n2c(=O)ccc3c(C(=O)c4ccccc4)c(NC4CNC4)sc32)cc1` here?
**A.** < 2000 nM

**Q.** For `CN1CC[C@H](Nc2sc3c(ccc(=O)n3-c3ccccc3)c2C(=O)c2ccccc2)C1`, which IC50 is on record?
**A.** < 2000 nM

**Q.** Which IC50 does the source give for `Cc1cc(C(=O)c2c(NC(=O)NCC(C)(C)O)sc3c2ccc(=O)n3CC2CC2)ccc1F` here?
**A.** < 2000 nM

**Q.** `Cc1cccc(C(=O)c2c(NC3CN(C)C3)sc3c2ccc(=O)n3-c2ccccc2)c1` was tested. Which IC50 did it give?
**A.** < 2000 nM

**Q.** How did the IC50 turn out when `Cc1cccc(C(=O)c2c(NC3CNC3)sc3c2ccc(=O)n3-c2ccccc2)c1` was run?
**A.** < 2000 nM

**Q.** Which IC50 does the source give for `Cc1cc(C(=O)c2c(NC3CN(C)C3)sc3c2ccc(=O)n3-c2ccccc2)ccc1F` here?
**A.** < 2000 nM

**Q.** Which IC50 does the source give for `CC(=O)Nc1sc2c(ccc(=O)n2-c2ccccc2F)c1C(=O)c1cccc(C)c1` here?
**A.** < 2000 nM

**Q.** Which IC50 does the source give for `Cc1cccc(C(=O)c2c(NC(=O)OC(C)(C)C)sc3c2ccc(=O)n3-c2ccccc2)c1` here?
**A.** < 2000 nM

**Q.** `Nc1sc2c(ccc(=O)n2-c2ccccc2)c1C(=O)c1ccccc1C(F)(F)F` was tested. Which IC50 did it give?
**A.** < 2000 nM

**Q.** Which IC50 does the source give for `Cc1cc(C(=O)c2c(N[C@H]3CCN(C)C3)sc3c2ccc(=O)n3-c2ccccc2)ccc1F` here?
**A.** < 2000 nM

**Q.** For `CN(C)[C@@H]1CCN(C(=O)Nc2sc3c(ccc(=O)n3-c3ccccc3)c2C(=O)c2ccccc2)C1`, which IC50 is on record?
**A.** < 2000 nM

**Q.** For `Cc1cc(C(=O)c2c([N+](=O)[O-])sc3c2ccc(=O)n3-c2ccccc2Cl)ccc1F`, which IC50 is on record?
**A.** < 2000 nM

**Q.** How did the IC50 turn out when `Cc1ccc(-n2c(=O)ccc3c(C(=O)c4ccc(F)c(C)c4)c(N)sc32)cc1` was run?
**A.** < 2000 nM

**Q.** How did the IC50 turn out when `CC(=O)Nc1sc2c(ccc(=O)n2-c2ccccc2)c1C(=O)c1cccc(C)c1` was run?
**A.** < 2000 nM

**Q.** For `Nc1sc2c(ccc(=O)n2-c2ccccc2)c1C(=O)c1ccc(OC(F)F)cc1`, which IC50 is on record?
**A.** < 2000 nM

**Q.** With `Cc1cc(C(=O)c2c(C(N)=O)sc3c2ccc(=O)n3-c2ccccc2)ccc1F` as the compound, how does the IC50 read?
**A.** < 2000 nM

**Q.** Which IC50 does the source give for `Cc1cccc(C(=O)c2c(C(=O)N3CCC3)sc3c2ccc(=O)n3-c2ccccc2)c1` here?
**A.** < 2000 nM

**Q.** With `CC(=O)Nc1sc2c(ccc(=O)n2-c2ccccc2)c1C(=O)c1ccc(F)c(C)c1` as the compound, how does the IC50 read?
**A.** < 2000 nM

**Q.** Which IC50 does the source give for `Cc1cccc(C(=O)c2c(NS(C)(=O)=O)sc3c2ccc(=O)n3-c2ccccc2)c1` here?
**A.** < 2000 nM

**Q.** How did the IC50 turn out when `O=C(NCCO)Nc1sc2c(ccc(=O)n2-c2ccccc2)c1C(=O)c1ccccc1` was run?
**A.** < 2000 nM

**Q.** Which IC50 does the source give for `CN1CCC[C@@H]1C(=O)Nc1sc2c(ccc(=O)n2-c2ccccc2)c1C(=O)c1ccccc1` here?
**A.** < 2000 nM

**Q.** For `O=C(c1ccccc1)c1c(N[C@H]2CCCNC2)sc2c1ccc(=O)n2-c1ccccc1`, which IC50 is on record?
**A.** < 2000 nM

**Q.** For `Cc1cc(C(=O)c2c(NC(=O)N[C@@H]3CCNC3)sc3c2ccc(=O)n3-c2ccccc2)ccc1F`, which IC50 is on record?
**A.** < 2000 nM

**Q.** Which IC50 does the source give for `NC1CN(c2sc3c(ccc(=O)n3-c3ccccc3)c2C(=O)c2ccccc2)C1` here?
**A.** < 2000 nM

**Q.** Which IC50 does the source give for `Cc1cccc(C(=O)c2c(NC(=O)N(C)C)sc3c2ccc(=O)n3-c2ccccc2)c1` here?
**A.** < 2000 nM

**Q.** Which IC50 does the source give for `O=C(c1ccccc1)c1c(C(=O)N2CCCC2)sc2c1ccc(=O)n2-c1ccccc1` here?
**A.** < 2000 nM

**Q.** With `Nc1sc2c(ccc(=O)n2-c2ccccc2)c1C(=O)c1ccccn1` as the compound, how does the IC50 read?
**A.** < 2000 nM

**Q.** For `CN1CCN(C(=O)Nc2sc3c(ccc(=O)n3-c3ccccc3)c2C(=O)c2ccccc2)CC1`, which IC50 is on record?
**A.** < 2000 nM

**Q.** For `Nc1sc2c(ccc(=O)n2-c2ccccc2)c1C(=O)c1ccc(F)c(Cl)c1`, which IC50 is on record?
**A.** < 2000 nM

**Q.** How did the IC50 turn out when `Cc1cc(C(=O)c2c(NC(=O)N3CC[C@@H](N(C)C)C3)sc3c2ccc(=O)n3-c2ccccc2)ccc1F` was run?
**A.** < 2000 nM

**Q.** With `NC(=O)c1sc2c(ccc(=O)n2-c2ccccc2)c1C(=O)c1ccc(F)c(Cl)c1` as the compound, how does the IC50 read?
**A.** < 2000 nM

**Q.** For `Cc1cccc(C(=O)c2c(C(=O)O)sc3c2ccc(=O)n3-c2ccccc2)c1`, which IC50 is on record?
**A.** < 2000 nM
